The record followed here is ChEMBL document CHEMBL6074678, “Selectively Antagonizing the NOD1-Mediated Inflammatory Signaling Pathway Mitigates the Gastric Inflammation Induced by Helicobacter pylori Infection” (J Med Chem, 2024).

In data set [1] the target is T1, Nucleotide-binding oligomerization domain-containing protein 1 (Homo sapiens) (UniProt Q9Y239).
T1 sequence (whole entry): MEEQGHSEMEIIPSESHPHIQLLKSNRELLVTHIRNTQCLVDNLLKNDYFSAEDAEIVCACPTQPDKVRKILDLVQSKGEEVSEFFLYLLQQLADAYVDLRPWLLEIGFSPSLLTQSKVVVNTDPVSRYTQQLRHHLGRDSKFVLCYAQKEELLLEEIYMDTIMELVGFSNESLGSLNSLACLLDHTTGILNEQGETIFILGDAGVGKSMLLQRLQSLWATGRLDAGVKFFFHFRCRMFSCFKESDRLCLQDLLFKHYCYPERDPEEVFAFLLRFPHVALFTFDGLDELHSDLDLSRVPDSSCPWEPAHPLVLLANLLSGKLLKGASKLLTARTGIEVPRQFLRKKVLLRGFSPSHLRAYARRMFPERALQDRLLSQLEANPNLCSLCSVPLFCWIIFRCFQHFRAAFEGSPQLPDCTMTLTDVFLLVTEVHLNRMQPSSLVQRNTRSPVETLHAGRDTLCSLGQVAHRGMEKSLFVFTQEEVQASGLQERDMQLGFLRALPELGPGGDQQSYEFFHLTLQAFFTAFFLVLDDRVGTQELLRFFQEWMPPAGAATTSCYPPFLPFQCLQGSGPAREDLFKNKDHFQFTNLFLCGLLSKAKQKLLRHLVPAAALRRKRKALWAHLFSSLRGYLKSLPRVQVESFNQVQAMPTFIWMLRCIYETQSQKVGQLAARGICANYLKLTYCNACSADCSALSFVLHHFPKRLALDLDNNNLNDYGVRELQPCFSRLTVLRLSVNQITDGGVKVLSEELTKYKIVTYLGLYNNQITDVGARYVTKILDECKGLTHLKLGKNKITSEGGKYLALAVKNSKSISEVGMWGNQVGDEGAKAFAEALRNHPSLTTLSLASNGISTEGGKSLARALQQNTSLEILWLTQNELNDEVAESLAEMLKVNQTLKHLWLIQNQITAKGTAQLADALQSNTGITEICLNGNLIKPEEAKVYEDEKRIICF
In words: Antagonist activity at NOD1 in human THP-1 cells assessed as decrease in phosphorylated p65 level at 0.1 to 1 uM incubated for 1 hr followed by C12-iE-DAP stimulation for 30 mins by Western blot analysis. It is filed as cell-based. Particulars: filed as antagonist, dose 0.1-1 µM, time 1.5 hrs. (In general: Immunoblotting shows a protein as a band on a membrane.)

Data set [2] concerns the target T2, Nucleotide-binding oligomerization domain-containing protein 1 (Mus musculus) (UniProt Q8BHB0).
T2 sequence (whole entry): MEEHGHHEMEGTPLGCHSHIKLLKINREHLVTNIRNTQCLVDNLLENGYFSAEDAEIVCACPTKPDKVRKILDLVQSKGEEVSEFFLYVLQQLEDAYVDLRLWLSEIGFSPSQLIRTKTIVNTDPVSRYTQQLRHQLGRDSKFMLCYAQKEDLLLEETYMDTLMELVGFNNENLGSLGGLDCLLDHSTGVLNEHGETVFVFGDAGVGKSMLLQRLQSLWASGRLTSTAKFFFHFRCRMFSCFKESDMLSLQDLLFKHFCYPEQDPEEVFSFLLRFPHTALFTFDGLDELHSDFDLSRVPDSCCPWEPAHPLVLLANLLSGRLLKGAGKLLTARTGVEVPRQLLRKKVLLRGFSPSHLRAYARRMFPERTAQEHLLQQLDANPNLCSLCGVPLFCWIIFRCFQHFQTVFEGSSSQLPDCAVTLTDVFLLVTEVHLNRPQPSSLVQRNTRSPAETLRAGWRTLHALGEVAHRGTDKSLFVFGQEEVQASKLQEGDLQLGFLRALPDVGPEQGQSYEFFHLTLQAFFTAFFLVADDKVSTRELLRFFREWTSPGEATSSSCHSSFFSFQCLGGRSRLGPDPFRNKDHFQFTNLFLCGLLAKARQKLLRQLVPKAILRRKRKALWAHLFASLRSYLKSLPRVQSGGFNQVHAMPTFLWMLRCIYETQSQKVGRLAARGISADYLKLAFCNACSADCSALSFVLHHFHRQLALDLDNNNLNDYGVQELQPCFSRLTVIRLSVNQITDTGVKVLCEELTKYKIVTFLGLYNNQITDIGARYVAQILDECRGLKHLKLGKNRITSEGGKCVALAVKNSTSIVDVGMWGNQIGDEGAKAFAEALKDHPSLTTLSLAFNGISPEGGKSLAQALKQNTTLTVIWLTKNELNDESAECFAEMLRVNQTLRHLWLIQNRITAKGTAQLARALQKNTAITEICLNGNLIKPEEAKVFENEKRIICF
In words: Antagonist activity at NOD1 in mouse BMDM cells assessed as decrease in phosphorylated RIP2 level at 0.1 to 1 uM incubated for 1 hr followed by C12-iE-DAP stimulation for 30 mins by Western blot analysis. Format: cell-based. The following applies: filed as antagonist, dose 0.1-1 µM, time 1.5 hrs.

Data set [3] has as its target T2, Nucleotide-binding oligomerization domain-containing protein 1 (Mus musculus). In words: Antagonist activity at NOD1 in mouse BMDM cells assessed as decrease in phosphorylated p38 level at 0.1 to 1 uM incubated for 1 hr followed by C12-iE-DAP stimulation for 30 mins by Western blot analysis. The following applies: filed as antagonist, dose 0.1-1 µM, time 1.5 hrs. Format: cell-based.

Data set [4] can be described thus: Anti-inflammatory activity in mouse BMDM cells assessed as decrease in IL-6 mRNA level at 0.1 uM pretreated for 1 hr followed by C12-iE-DAP stimulation for 2 hrs by RT-qPCR analysis relative to control. It is filed as functional. The following applies: time 3 hrs. The arrangement: scale not given: the % may be the effect or the level left.
The nature of data set [5]: Cmax in C57BL/6 mouse at 2 mg/kg, iv by LC-MS/MS analysis. Format: ADME, organism-based. The following applies: in vivo.
Data set [6] has as its system Mus musculus. Kind of data set: Anti-inflammatory activity in C57BL/6 mouse assessed as inhibition in serum keratinocyte chemoattractant level at 12.5 to 50 mg/kg, po pretreated with compound for 15 mins followed by C12-iE-DAP administration measured after 2 hrs by ELISA relative to control. Format: functional. Particulars: dose 12.5-50 mg/kg, time 135 min, 2.25 h. (In general: An ELISA detects its analyte on a solid surface through an enzyme-linked reagent.)

The source made the active and inactive calls. The rule behind the calls is not given here.

With `CS(=O)(=O)c1ccc2nc(Cl)n(-c3ccc(Cl)c(NS(=O)(=O)c4c(F)cccc4F)c3)c(=O)c2c1`, the inhibition result in data set [1], in data set [2] and in data set [3] was “Active” in each case. For the same molecule, the Activity in data set [4] is listed as approximately 100%. Further, the Cmax – broadly, the peak of the concentration-time curve – in data set [5] was 234 ng/mL. In data set [6], the “inhibition (INH)” value was approximately 77%.
